Columns and labels:
human GR [1] = target: T1, human GR (Homo sapiens, UniProt P04150); test: Transrepression Assay (GITAR), TNFα-β-lactamase reporter in U937 cells; assay type: cell-based; set-up: U937 cells contain an endogenous glucocorticoid receptor (GR); endogenous in cells; host or cells: U937 cells stably transfected with the TNF-alpha promoter/beta-lactamase reporter; settings: for GITAR > GRAMM % SEP: GITAR Emax minus GRAMMER Emax; for EC50: U937 cells, inflection point, read-out: Transrepression U937 Cells GITAR IP
T1 sequence (P04150 1-777): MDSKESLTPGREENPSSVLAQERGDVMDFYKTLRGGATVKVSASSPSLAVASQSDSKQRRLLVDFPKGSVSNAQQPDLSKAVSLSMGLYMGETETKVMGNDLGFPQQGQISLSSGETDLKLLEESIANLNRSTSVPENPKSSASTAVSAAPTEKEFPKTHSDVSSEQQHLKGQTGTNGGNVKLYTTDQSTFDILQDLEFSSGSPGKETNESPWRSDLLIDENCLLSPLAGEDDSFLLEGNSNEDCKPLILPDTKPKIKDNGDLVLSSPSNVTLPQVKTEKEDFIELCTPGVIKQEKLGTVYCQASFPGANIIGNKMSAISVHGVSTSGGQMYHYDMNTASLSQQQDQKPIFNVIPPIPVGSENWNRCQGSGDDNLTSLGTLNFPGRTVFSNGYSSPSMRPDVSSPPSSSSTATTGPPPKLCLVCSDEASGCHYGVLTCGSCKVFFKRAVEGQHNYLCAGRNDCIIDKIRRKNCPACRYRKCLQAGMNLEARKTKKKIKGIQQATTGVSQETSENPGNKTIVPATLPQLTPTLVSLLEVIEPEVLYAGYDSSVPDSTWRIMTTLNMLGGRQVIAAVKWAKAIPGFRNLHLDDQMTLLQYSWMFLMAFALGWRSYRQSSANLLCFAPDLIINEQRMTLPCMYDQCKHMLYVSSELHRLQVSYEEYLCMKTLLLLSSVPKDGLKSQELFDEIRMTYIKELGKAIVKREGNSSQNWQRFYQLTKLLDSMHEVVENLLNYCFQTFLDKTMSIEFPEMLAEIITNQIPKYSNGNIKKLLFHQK
Outline: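 Read-out: CCF2-AM β-lactamase signal after 70–90 min loading at room temperature. U937 TNF-α-promoter reporter cells (endogenous GR), compound 30–45 min at 37 °C, then PMA 5 ng/ml + LPS 100 ng/ml final, ~18 hr. Normalised to 100 nM dexamethasone = 100%.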

human GR [2] = target: T1, human GR; test: Trans-Activation Modulation of Glucocorticoid Receptor (GRAMMER), MMTV-LUC reporter, agonist mode; assay type: cell-based; set-up: endogenous in cells; settings: for Emax: A549, A549 cells, maximum activity, read-out: Transactivation A549 Cells GRAMMER Emax; for EC50: A549 cells, inflection point, read-out: Transactivation A549 Cells GRAMMER IP
Outline: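 Readout is luciferase from a modified MMTV LTR promoter after 24 h compound exposure alongside 10 nM dexamethasone (100% activity reference), DMSO ≤1%.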

[3] = U-937, U937 cells, maximum activity, read-out: Transrepression U937 Cells GITAR Emax
[4] = U-937, activity repressed by 100 nM dexamethasone alone set as 100%, read-out: maximal activity in the transrepression (GITAR) assay

| GITAR > GRAMM % SEP (human GR [1]) | EC50 (human GR [1]) | Emax (human GR [1]; [3]) | Emax (human GR [1]; [4]) | Emax (human GR [2]) | EC50 (human GR [2]) | Structure (SMILES) |
| --- | --- | --- | --- | --- | --- | --- |
| 5.6% | 433 nM | 83.7% | > 5% | 78.1% | 203 nM | C[C@]12Cc3cnn(-c4ccccc4)c3C=C1CC[C@@H]2CN(CCc1ccccn1)S(=O)(=O)CC(F)(F)F [Example 138, 2,2,2-trifluoro-N-{[(4αR,5S)-4α-methyl-1-phenyl-1,4,4α,5,6,7-hexahydrocyclopenta[f]indazol-5-yl]methyl}-N-(2-pyridin-2-ylethyl)ethanesulfonamide] |
| 1.7% | 798 nM | 72.4% | > 5% | 70.7% | 262 nM | COc1ccccc1CCN(C[C@H]1CCC2=Cc3c(cnn3-c3ccccc3)C[C@@]21C)S(=O)(=O)CC(F)(F)F [Example 139, 2,2,2-trifluoro-N-[2-(2-methoxyphenyl)ethyl]-N-{[(4αR,5S)-4α-methyl-1-phenyl-1,4,4α,5,6,7-hexahydrocyclopenta[f]indazol-5-yl]methyl}ethanesulfonamide] |
| – | 1570 nM | 37% | > 5% | 21.3% | 704 nM | C[C@]12Cc3cnn(-c4ccccc4)c3C=C1CC[C@@H]2CN(CCc1ccccn1)S(=O)(=O)Cc1cccnc1 [Example 140, N-{[(4αR,5S)-4α-methyl-1-phenyl-1,4,4α,5,6,7-hexahydrocyclopenta[f]indazol-5-yl]methyl}-1-pyridin-3-yl-N-(2-pyridin-2-ylethyl)methanesulfonamide] |
| 39.7% | 400 nM | 62.2% | > 5% | 22.6% | 441 nM | C[C@]12Cc3cnn(-c4ccccc4)c3C=C1CC[C@@H]2CN(CCc1ccccc1O)S(=O)(=O)Cc1cccnc1 [Example 141, N-[2-(2-hydroxyphenyl)ethyl]-N-{[(4αR,5S)-4α-methyl-1-phenyl-1,4,4α,5,6,7-hexahydrocyclopenta[f]indazol-5-yl]methyl}-1-pyridin-3-ylmethanesulfonamide] |
| 14.4% | 140 nM | 92.5% | > 5% | 78.1% | 123 nM | C[C@]12Cc3cnn(-c4ccc(F)cc4)c3C=C1CC[C@@H]2CN(CC(O)c1ccccn1)S(=O)(=O)CC(F)(F)F (stereo partly drawn) [Example 142, 2,2,2-trifluoro-N-{[(4αR,5S)-1-(4-fluorophenyl)-4α-methyl-1,4,4α,5,6,7-hexahydrocyclopenta[f]indazol-5-yl]methyl}-N-(2-hydroxy-2-pyridin-2-ylethyl)ethanesulfonamide] |
| 7.7% | 225 nM | 91.2% | > 5% | 83.5% | 252 nM | C[C@]12Cc3cnn(-c4ccc(F)cc4)c3C=C1CC[C@@H]2CN(CC(O)c1cccnc1)S(=O)(=O)CC(F)(F)F (stereo partly drawn) [Example 143, 2,2,2-trifluoro-N-{[(4αR,5S)-1-(4-fluorophenyl)-4α-methyl-1,4,4α,5,6,7-hexahydrocyclopenta[f]indazol-5-yl]methyl}-N-(2-hydroxy-2-pyridin-3-ylethyl)ethanesulfonamide] |
| 18.1% | 334 nM | 91.6% | > 5% | 73.6% | 397 nM | C[C@]12Cc3cnn(-c4ccc(F)cc4)c3C=C1CC[C@@H]2CN(CC(O)c1ccncc1)S(=O)(=O)CC(F)(F)F (stereo partly drawn) [Example 144, 2,2,2-trifluoro-N-{[(4αR,5S)-1-(4-fluorophenyl)-4α-methyl-1,4,4α,5,6,7-hexahydrocyclopenta[f]indazol-5-yl]methyl}-N-(2-hydroxy-2-pyridin-4-ylethyl)ethanesulfonamide] |
| 33.3% | 196 nM | 93.5% | > 5% | 60.2% | 204 nM | C[C@]12Cc3cnn(-c4ccc(F)cc4)c3C=C1CC[C@@H]2CN(CC(OS(=O)(=O)CC(F)(F)F)c1ccccn1)S(=O)(=O)CC(F)(F)F (stereo partly drawn) [Example 145, 2-{{[(4αR,5S)-1-(4-fluorophenyl)-4α-methyl-1,4,4α,5,6,7-hexahydrocyclopenta[f]indazol-5-yl]methyl}[(2,2,2-trifluoroethyl)sulfonyl]amino}-1-pyridin-2-ylethyl 2,2,2-trifluoroethanesulfonate] |
| 1.8% | 308 nM | 93.3% | > 5% | 91.5% | 263 nM | CC(CN(C[C@H]1CCC2=Cc3c(cnn3-c3ccc(F)cc3)C[C@@]21C)S(=O)(=O)CC(F)(F)F)c1cccnc1 (stereo partly drawn) [Example 146, 2,2,2-trifluoro-N-{[(4αR,5S)-1-(4-fluorophenyl)-4α-methyl-1,4,4α,5,6,7-hexahydrocyclopenta[f]indazol-5-yl]methyl}-N-(2-pyridin-3-ylpropyl)ethanesulfonamide] |
| 0.3% | 708 nM | 78.4% | > 5% | 78.1% | 475 nM | C[C@]12Cc3cnn(-c4ccc(F)cc4)c3C=C1CC[C@@H]2CN(CCC(N)C(F)(F)F)S(=O)(=O)CC(F)(F)F (stereo partly drawn) [Example 147, N-(3-amino-4,4,4-trifluorobutyl)-2,2,2-trifluoro-N-{[(4aR,5S)-1-(4-fluorophenyl)-4α-methyl-1,4,4α,5,6,7-hexahydrocyclopenta[f]indazol-5-yl]methyl}ethanesulfonamide] |
| 14.9% | 858 nM | 77.6% | > 5% | 62.6% | 403 nM | CCCS(=O)(=O)N(CC(O)C(F)(F)F)C[C@H]1CCC2=Cc3c(cnn3-c3ccc(F)cc3)C[C@@]21C (stereo partly drawn) [Example 148, N-{[(4αR,5S)-1-(4-fluorophenyl)-4α-methyl-1,4,4α,5,6,7-hexahydrocyclopenta[f]indazol-5-yl]methyl}-N-(3,3,3-trifluoro-2-hydroxypropyl)propane-1-sulfonamide] |
| 44.7% | 250 nM | 77.1% | > 5% | 32.4% | 351 nM | C[C@]12Cc3cnn(-c4ccc(F)cc4)c3C=C1CC[C@@H]2CN(CC(O)C(F)(F)F)S(=O)(=O)Cc1cccnc1 (stereo partly drawn) [Example 149, N-{[(4αR,5S)-1-(4-fluorophenyl)-4α-methyl-1,4,4α,5,6,7-hexahydrocyclopenta[f]indazol-5-yl]methyl}-1-pyridin-3-yl-N-(3,3,3-trifluoro-2-hydroxypropyl)methanesulfonamide] |
| 33.7% | 376 nM | 79.3% | > 5% | 45.6% | 346 nM | Cn1cc(S(=O)(=O)N(CCc2ccccn2)C[C@H]2CCC3=Cc4c(cnn4-c4ccc(F)cc4)C[C@@]32C)c(C(F)(F)F)n1 [Example 150, N-{[(4αR,5S)-1-(4-fluorophenyl)-4α-methyl-1,4,4α,5,6,7-hexahydrocyclopenta[f]indazol-5-yl]methyl}-1-methyl-N-(2-pyridin-2-ylethyl)-3-(trifluoromethyl)-1H-pyrazole-4-sulfonamide] |

Source: patent US8299048B2, “Hexahydrocyclopentyl[f]indazole sulfonamides and derivatives thereof as selective glucocorticoid receptor modulators” (Merck Sharp & Dohme Corp., priority 2008, dated 2012)
